Experiments:
[1] = Cell viability (WST-1), untransfected HeLa cells; assay type: cell-based; settings: human, hela cells, 12.5 μM, WST-1, read-out: reduction of viability of HeLa cells
Experimental: (§1) Cell Viability. Cells were treated with DMSO (vehicle) or compound 2 for 48 h at 37° C. After the removal of the DMSO or compound-containing growth medium, the cells were washed with 1×DPBS and incubated in growth medium containing 10% (v/v) WST-1 cell proliferation reagent (Roche) or CellTiter Fluor (Promega; per the manufacturer's recommend protocol) for 40 min. The absorbance of the solution was measured at 450 and 650 nm with a SpectraMax M5 plate reader (Molecular Devices) for cells treated with WST-1. The background signal at 650 nm was subtracted from the WST-1 signal at 450 nm for analysis. For cells treated with CellTiter Fluor, the fluorescence was measured with 390 nm excitation and 505 nm emission wavelengths. Cells treated with a compound were compared to vehicle treated cells to determine the effect of the compound on cell viability.

HeLa cells = experiment: Cell viability (WST-1), untransfected HeLa cells; assay type: cell-based; settings: up to 12.5 μM, 48 h
Experimental: as §1

[2] = tested on: DDPAC I17T MAPT mini-gene (exon 10 splicing); experiment: 4R/3R MAPT mRNA by RT-qPCR, HeLa cells transfected with DDPAC I17T mini-gene; assay type: cell-based
Experimental: RNA Isolation and Real-Time Quantitative PCR (RT-qPCR). HeLa cells were treated as described in the Luciferase Reporter assay to Study Exon 10 Alternative Splicing. LAN5 cells were seeded in 12-well plates at 0.2×10^6 cells per well, treated with compound or ASO, and incubated for 48 h. Compound stocks prepared in DMSO and ASO stocks prepared in water were diluted in growth medium and added to cells. Total RNA was extracted from cells and analyzed via RT-qPCR to determine levels of 3R and 4R tau mRNA. In brief, the cells were washed with 1×DPBS and then lysed in the well using 300 μL of Lysis Buffer provided in a Quick-RNA MiniPrep kit (Zymo Research), which was used to extract total RNA per the manufacturer's protocol including the on-column DNase I digestion. The concentration of total RNA was measured by NanoDrop 2000 (Thermo Fisher Scientific). Only samples with OD260/OD280>1.8 were carried forward for analysis. Reverse transcription (RT) was carried out on 200 ng of total RNA using a qScript cDNA synthesis kit (QuantaBio) in a total volume of 10 μL according to the manufacturer's protocol. An Applied Biosystems QS5 384-well PCR system was used to complete qPCR reactions with Power SYBR Green Master Mix (Life Technologies), 600 nM each primer (Table S3), 20 ng of cDNA (1 μL of the RT reaction), in a total volume of 33 μL. Technical triplicates (10 μL each) were aliquoted into 384-well qPCR plates (Applied biosystems, 4483285). Subsequent qPCR analysis was performed using an Applied Biosystems QS5 384-well PCR system (software v.1.3.0). 4R/3R ratio were analyzed using ΔΔCt method using Equation 2: […]
where ΔCt 4R or ΔCt 3R is the difference between the Ct values for the 4R or 3R MAPT mRNA and a housekeeping gene (18S rRNA) in total RNA from cells.

WT MAPT SRE RNA = experiment: Fluorescent binding affinity, WT SRE RNA
Experimental: (§2) Fluorescent Binding Affinity Measurements. Binding assays were completed as previously described.^30 Briefly, the RNA of interest was folded in 1× Assay Buffer-1 (AB1: 8 mM Na2HPO4, pH 7.0, 185 mM NaCl, and 1 mM EDTA) by heating at 95° C. for 30 s followed by slowly cooling to room temperature. Bovine serum albumin (BSA) was then added to a final concentration of 40 μg/mL to afford 1× Assay Buffer-2 (AB2: 8 mM Na2HPO4, pH 7.0, 185 mM NaCl, 1 mM EDTA, and 40 μg/mL BSA). The RNA solution was serial diluted with 1×AB2. Then, compound of interest was added to the RNA solutions to a final concentration of 0.5 μM. […] Fluorescence intensity was measured using a Tecan Plate Reader (Gain: 100, Integration time: 40 μs). […] The change in fluorescence of the small molecule was calculated by its comparison to samples lacking RNA. Binding affinity was calculated using Equation 1, as previously described:^30
(§3) where I and I0 are the measured fluorescence intensity of the compound with or without RNA, respectively, Δε is the difference between the fluorescence intensity with the infinite concentration of RNA and the fluorescence intensity without RNA, [SM]0 and [RNA]0 are the concentrations of the small molecule (SM) and RNA, respectively, and Kd is the dissociation constant.

DDPAC I17T mutant RNA = experiment: Fluorescent binding affinity, DDPAC I17T mutant RNA
Experimental: as §2, §3

DDPAC model RNA = experiment: Optical melting, DDPAC RNA; assay type: binding; settings: 2 at 1.5 μM
Experimental: Optical Melting Experiments. The thermal stabilities of WT, DDPAC, and DDPAC+I17T model RNAs were analyzed by optical melting in the presence or absence of compound 1 or 2 as previously described.^18 The RNAs (2 μM) were heated to 95° C. in 1×PBS buffer and slowly cooled to room temperature. The samples were then cooled to 15° C. in the presence of compound 1 (10 μM; 0.1% (v/v) DMSO), 2 (1.5 μM; 0.1% (v/v) DMSO) or vehicle (0.1% (v/v) DMSO) and then heated to 85° C. at a rate of 1° C. per min. Absorbance as a function of temperature was measured at 260 nm using a Beckman Coulter DU800 UV/vis spectrophotometer. Melting curves were fitted with MeltWin 3.5.^31

COc1cc(N)ncc1CCCN(C)CCCn1cnc2c3ccccc3n(C)c2c1=O [Compound 2, 3-(3-((3-(6-amino-4-methoxypyridin-3-yl)propyl)(methyl)amino)propyl)-5-methyl-3,5-dihydro-4H-pyrimido[5,4-b]indol-4-one]
cytotoxicity at 48 h, 12.5 µM [1]: 17 ± 3%
effect on viability of HeLa cells (HeLa cells): No effect on the viability
PSI10 (PSI of MAPT exon 10) vs vehicle [2]: not WT I17T or DDPAC I17T mutant
change in 4R/3R ratio (not statistically significant) ([2]; 1 at 10 μM or 2 at 1.5 μM): < 16%
higher affinity for the MAPT SRE than 1 (WT MAPT SRE RNA; 2 vs 1): ~ 6 fold
Kd (WT MAPT SRE RNA; WT RNA, inherent fluorescence, n=3): 550 ± 110 nM
Kd (estimated; no saturable binding) (DDPAC I17T mutant RNA): > 50000 nM
increase of Tm (DDPAC model RNA): 1.36±0.11 °C

Source: patent publication US20260308158A1, “TARGETING RNAS ASSOCIATED WITH TAUOPATHIES WITH SMALL MOLECULES” (University of Florida Research Foundation, Incorporated, priority 2023, published 2026)
